Patent US20240058390A1, “WNT+ ADIPOCYTES, EXOSOMES FROM WNT+ ADIPOCYTES, AND METHODS OF MAKING AND USING THEM” (The Administrators of the Tulane Educational Fund, priority 2020, published 2024)
Entries after “also recorded” stand apart in the source; their conditions may differ.

Columns and labels:
[1] = test system: Wnt/β-catenin signaling; assay: Wnt/β-catenin signaling activity (TCF/Lef:H2B-GFP reporter) in SVF precursors under pro-adipogenic conditions; type: cell-based, mouse; conditions: DKK1 100 ng/ml, IWP-2 5 μM, LF3 10 and 20 μM
Method: (§1) Immortalized cell lines, isolated adipose SVF cells, MEFs, and BMSCs were seeded into plates at the density of 4×10^3 cells/cm^2 (cell line and SVF) or 1.5×10^4 cells/cm2 (BMSCs) in MesenCult™ Expansion medium (Stemcell Technologies Inc., Cambridge, MA, catalog no. 05513), and treated with MesenCult™ Adipogenic Differentiation cocktail (Stemcell, catalog no. 05507) with 90% cell confluence. Cells were cultured for various days after pro-adipogenic induction prior to being harvested for following experiments. Adipogenesis was examined by lipid staining. Briefly, differentiated adipocytes were washed twice with PBS, fixed in 4% paraformaldehyde (PFA) for 15 min, and then stained with Oil Red O solution (Sigma-Aldrich, catalog no. 01391) for 20 min at ambient temperature or with 20 nM BODIPY (dipyrrometheneboron difluoride, catalog no. D3835, Thermo Fisher Scientific) in PBS for 15 min at 37° C. Subsequently, cells were washed with PBS before imaging.
(§2) For inhibition studies, SVF cells or precursor cell lines, 3 days after pro-adipogenic induction, were treated with each of the following molecules for 4 days: DKK1 (product 5897-DK-010, R&D Systems, Minneapolis, MN) (100 ng/ml), IWP-2 (catalog no. 72122, Stemcell), (5 μM), LF3 (catalog no. 58474, Selleck Chemicals) (10 and 20 μM, or 50 μM on cell lines), and LY294002 (catalog no. S1105, Selleck Chemicals) (2 and 14 μM), along with vehicles (PBS or DMSO).

[2] = test system: Wnt^+ adipocytes in iWAT; assay: β3-adrenoceptor agonist treatment of T/L-GFP mice, beiging in iWAT; type: in vivo, mouse; conditions: 1 mg/kg i.p. daily for 4 days
Method: (§3) For cold-exposure experiments, mice were singly caged and exposed to cold temperature at 6° C. for 2, 4, or 14 consecutive days. For β3-adrenoceptor agonist treatment, adult male mice were injected intraperitoneally with CL316,243 (CAS No. 138908-40-4, product C5976, Sigma-Aldrich Inc., St. Louis, MO) at 1 mg/kg body weight daily for 4 consecutive days prior to sample collection. Age-matched male littermates were treated intraperitoneally with saline as vehicle controls. […]
(§4) Adipose tissue was fixed in 4% PFA at 4° C. overnight, followed by dehydration through serial ethanol. […] After washing, sections were processed with a Vector TrueVIEW™ Autofluorescence Quenching Kit treatment (Vector Laboratories, Inc, Burlingame, CA, SP-8400) for 5 min to remove unspecific fluorescence on sections due to red blood cells and structural elements such as collagen and elastin. […] Images of tissue samples were captured using a Nikon confocal Microscope A1 HD25 (Nikon Instruments Inc., Melville, NY) and analyzed using ImageJ software (Version 1.51S). For quantification of Wnt^+ adipocytes, we randomly chose 12-18 images from each tissue of one mouse. Microscopic pictures (10× objective) were taken, and the total cell number and the number of GFP^+ adipocytes within each image were counted.

[3] = test system: Wnt^+ adipocytes in iWAT of T/L-DTA mice; assay: Tamoxifen-induced ablation of Wnt+ adipocytes in T/L-DTA mice; type: in vivo, mouse; conditions: 150 mg/kg i.p., 2 days
Method: To ablate Wnt^+ adipocytes in vivo, Fabp4-Flex-DTA mice were crossed with Tcf/Lef-CreERT2 mice to generate Tcf/Lef-CreERT2;Fabp4-Flex-DTA mice (“T/L-DTA” mice), which received 2-day tamoxifen administration via intraperitoneal injection at the dose of 150 mg/kg body weight. […] Forty-eight hours later, T/L-DTA mice and tamoxifen-treated littermate controls (Fabp4-Flex-DTA mice) were housed at 6° C. for 2 days, respectively.

[4] = test system: Wnt^+ adipocytes in iWAT and iBAT; assay: mTOR antagonist treatment of T/L-GFP mice, quantification of Wnt+ adipocytes; type: in vivo, mouse; conditions: T/L-GFP adult mice, 600 μg/kg i.p. daily for 5 days, vs vehicle
Method: as §3, §4

[5] = test system: uninduced Wnt^+ and Wnt^− precursor cell lines; assay: Treatment of uninduced Wnt+ and Wnt− precursor cell lines; type: cell-based, mouse; conditions: same dose of LF3
Excerpt: (§5) SVFs of iBAT from adult TCF/Lef:H2B-GFP male mice were separated and collected as described above. Cells at passage 1 were transduced with pUltra-hot-LT LV particles. Two days after transduction, cells were purified by performing FACS to remove mCherry- and Lin+ cells Immortalized cells were subjected to clonal selection through serial limited dilutions. The expression of GFP in cell colonies under pro-adipogenic induction was used as a readout for the accurate establishment of Wnt+ (>95%) and Wnt− (Wnt+=0%) adipocyte cell lines, respectively.
[…] S1105, Selleck Chemicals) (2 and 14 μM), along with vehicles (PBS or DMSO).

[6] = test system: Wnt^+ adipocytes induced from GFPpos-1 and GFPpos-2 cell lines; assay: Treatment of induced Wnt+ adipocytes from GFPpos-1 and GFPpos-2 cell lines (GFP signal, cell death); type: cell-based, mouse
Excerpt: as §5, §1, §2

[7] = test system: iBAT-derived SVF cells; assay: Adipogenic maturation of SVF-derived adipocytes (Oil Red O staining); type: cell-based, mouse; conditions: LF3, dose-dependent
Method: as §1, with “imaging. […]” for “imaging.”

[8] = test system: Wnt^− adipocytes induced from GFPneg precursor cell lines; assay: Treatment of induced Wnt− adipocytes from GFPneg precursor cell lines (viability, maturation); type: cell-based, mouse
Excerpt: as §5, §1, §2

In the case of `Cc1ccc2nc(NC(=O)CSc3nc4c(c(=O)n3-c3ccccc3)SCC4)sc2c1` [1WP-2, IWP-2], the “inhibition of Wnt/β-catenin signaling activity” value (“inhibition” for short) [1] is reported as “failed to”.

For `C[C@H](Cc1ccc2c(c1)OC(C(=O)[O-])(C(=O)[O-])O2)NC[C@H](O)c1cccc(Cl)c1.[Na+].[Na+]` [CL316,243], the “proportion of Wnt+ adipocytes in iWAT” value [2] was “unaltered”.

With `CC/C(=C(\c1ccccc1)c1ccc(OCCN(C)C)cc1)c1ccccc1` [tamoxifen] the “ablation of Wnt+ adipocytes in iWAT” value [3] was “about 87%”.

`CO[C@H]1C[C@@H]2CC[C@@H](C)[C@@](O)(O2)C(=O)C(=O)N2CCCC[C@H]2C(=O)O[C@H]([C@H](C)C[C@@H]2CC[C@@H](OC(=O)C(C)(CO)CO)[C@H](OC)C2)CC(=O)[C@H](C)/C=C(\C)[C@@H](O)[C@@H](OC)C(=O)[C@H](C)C[C@H](C)/C=C/C=C/C=C/1C` [temsirolimus, Temsirolimus] was tested, and the “Wnt+ adipocyte numbers in iBAT” value [4] was “dramatically reduced Wnt^+ adipocyte numbers” and the “Wnt+ adipocyte numbers in iWAT” value [4] was “dramatically reduced Wnt^+ adipocyte numbers”.

In the case of LF3, the “impact on uninduced precursor cell lines” value [5] is reported as “showed no impacts”, the “inhibition” value [1] is reported as “did inhibit” and the “GFP expression in induced Wnt+ adipocytes” value ([6]; 50 μM LF3, first day) is reported as “quenched GFP expression; also recorded: GFP signals are significantly quenched”. For the same molecule, the “cell number of induced Wnt+ adipocytes” value ([6]; 50 μM LF3, one day) was “obviously reduced cell numbers”, the “cell death of induced Wnt+ adipocytes” value ([6]; 50 μM LF3, second day) was “massive cell death; also recorded: Remarkable cell death” and the “adipogenic maturation of SVF-derived adipocytes” value [7] was “impaired/delayed adipogenic maturation”. The “cell viability of induced Wnt− adipocytes” value ([8]; LF3) was “did not affect cell viability”, the “maturation of Wnt− adipocytes” value ([8]; LF3) was “slowed down the maturation” and the “adipogenic capacity of LF3-treated Wnt− adipocytes after return to normal pro-adipogenic medium” value ([8]; LF3, rescue experiment) was “resumed full adipogenic capacity”.

B1: DKK1: canonical Wnt receptor antagonist (R&D Systems 5897-DK-010) (protein, UniProt O94907 32-266, looked up)
Dickkopf-related protein 1: TLNSVLNSNAIKNLPPPLGGAAGHPGSAVSAAPGILYPGGNKYQTIDNYQPYPCAEDEECGTDEYCASPTRGGDAGVQICLACRKRRKRCMRHAMCCPGNYCKNGICVSSDQNHFRGEIEETITESFGNDHSTLDGYSRRTTLSSKMYHTKGQEGSVCLRSSDCASGLCCARHFWSKICKPVLKEGQVCTKHRRKGSHGLEIFQRCYCGEGLSCRIQKDHHQASNSSRLHTCQRH
With B1 the “inhibition” value [1] was “failed to”.
